# Test results: patent US20240246918A1, “COMPOUNDS AND COMPOSITIONS AS EIF4E INHIBITORS AND THE USES THEREOF” (Ribometrix, Inc., priority 2022, published 2024)
# Like-named read-outs stand apart in the source and are kept apart here.
# Key:
# [1] = system: COLO 205 colorectal tumor cells; experiment: Tumor cell viability inhibition assay (CellTiter-Glo 2.0, 72 hours); format: cell-based; details: COLO 205 cell viability
# Procedure, shortened: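 COLO 205 cells (1500/well, RPMI-1640 + 10% FBS) exposed for 72 h to an 11-point, 4-fold dilution series; cellular ATP read by CellTiter-Glo 2.0 luminescence. Data normalized to DMSO and maximum-inhibition controls; IC50 from 4-parameter curve fit.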
# [2] = target: T1, human eIF4E protein (Homo sapiens, UniProt P06730); experiment: Biochemical competitive binding assay (TR-FRET competition, EDA-m7GDP-ATTO-647N probe); details: read-out: hEIF4E TR-FRET IC50
# T1 construct: purchased Novus NBP-45314
# T1 sequence (P06730 whole entry): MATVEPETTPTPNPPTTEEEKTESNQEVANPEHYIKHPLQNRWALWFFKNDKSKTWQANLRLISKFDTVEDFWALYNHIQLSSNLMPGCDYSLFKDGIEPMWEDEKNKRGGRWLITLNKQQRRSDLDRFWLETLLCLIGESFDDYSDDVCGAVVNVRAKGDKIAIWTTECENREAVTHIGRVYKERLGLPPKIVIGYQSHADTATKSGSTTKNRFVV
# Procedure, shortened: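 His-tagged human eIF4E (4 nM) was preincubated with Eu-anti-His antibody (2.5 nM) and added to compound (11-point, 4-fold dilutions) for 15 min. Then 5 nM EDA-m7GDP-ATTO-647N was added for 15 min, in HEPES pH 7.5, 100 mM KCl. The 665/620 TR-FRET ratio was normalized to controls, and IC50 was taken from 4-parameter fits.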
# [3] = system: cap-dependent translation in Flp-In-293 reporter cells; experiment: Cellular cap-dependent translation inhibition assay (dual luciferase assay, DLA; Fluc/Rluc ratio, 24 hours); format: cell-based; details: dual luciferase assay, Flp-In-293 reporter cells, 24 hours, Fluc/Rluc ratio, read-out: DLA 205 IC50
Compound,IC50 [1],IC50 [2],IC50 [3],"IC50 ([1]; Homo sapiens, COLO 205, 72 h)","IC50 ([3]; Homo sapiens, Flp-In-293, 24 h)"
"Cc1cc(-c2cc(Cl)ccc2OCCn2c(C)nc3c(c2=O)CC(N(CC(F)(F)F)C2CC2)CC3)c2scc(C(=O)O)c2n1 (single isomer, unassigned) [Compound 320]",5 to 20 µM,0.1 to 0.5 µM,1 to 5 µM,–,–
"Cc1nc2c(c(=O)n1CC#Cc1ccc(Cl)cc1-c1ccnc3c(C(=O)O)csc13)CC(N1CCCCC1)CC2 (single isomer, unassigned) [Compound 299]",5 to 20 µM,< 0.1 µM,1 to 5 µM,–,–
"Cc1cc(-c2cc(Cl)ccc2OCCn2c(C)nc3c(c2=O)CC(N(C)c2ccncc2)CC3)c2scc(C(=O)O)c2n1 (stereo not drawn) [Compound 47, 7-[5-chloranyl-2-[2-[2-methyl-6-[methyl(4-pyridyl)amino]-4-oxidanylidene-5,6,7,8-tetrahydroquinazolin-3-yl]ethoxy]phenyl]-5-methyl-thieno[3,2-b]pyridine-3-carboxylic acid; 2,2,2-tris(fluorenyl)acetic acid]",–,< 0.1 µM,–,> 20 µM,> 5 µM
Cc1nc2c(c(=O)n1CC#Cc1ccc(Cl)cc1-c1ccnc3c(C(=O)O)csc13)CC(N(C)C1CC(F)(F)C1)CC2 (stereo not drawn) [Compound 86],–,< 0.1 µM,–,< 5 µM,< 1 µM
Cc1cc(-c2cc(Cl)ccc2OCCn2c(C)nc3c(c2=O)CC(N(C)C(=O)C2CCN(C)CC2)CC3)c2scc(C(=O)NS(C)(=O)=O)c2n1 (stereo not drawn) [Compound 84],–,< 0.1 µM,–,> 20 µM,> 5 µM
Cc1cc(-c2cc(Cl)ccc2OCCn2c(C)nc3c(c2=O)CC(N(C)CC(F)(F)F)CC3)c2scc(C(=O)NS(C)(=O)=O)c2n1 (stereo not drawn) [Compound 61],–,< 0.1 µM,–,< 5 µM,< 1 µM
Cc1cc(-c2cc(Cl)ccc2OCCn2c(C)nc3c(c2=O)CC(N2CC4(CCN(C)C4)C2)CC3)c2scc(C(=O)O)c2n1 (stereo not drawn) [Compound 21],–,< 0.1 µM,–,> 20 µM,> 5 µM
Cc1cc(-c2cc(Cl)ccc2OCCn2c(C)nc3c(c2=O)CC(N(C)Cc2ccncc2)CC3)c2scc(C(=O)NS(C)(=O)=O)c2n1 (stereo not drawn) [Compound 68],–,< 0.1 µM,–,< 5 µM,< 1 µM
Cc1cc(-c2cc(Cl)ccc2OCCn2c(C)nc3c(c2=O)CC(N2CC(C)(N(C)C)C2)CC3)c2scc(C(=O)O)c2n1 (stereo not drawn) [Compound 23],–,< 0.1 µM,–,> 20 µM,> 5 µM
"Cc1cc(-c2cc(Cl)ccc2OCCn2c(C)nc3c(c2=O)C[C@@H](N2CCC[C@@H](F)C2)CC3)c2scc(C(=O)O)c2n1 (single isomer, unassigned) [Compound 324]",–,< 0.1 µM,–,< 5 µM,< 1 µM
"CO[C@H]1CCN([C@H]2CCc3nc(C)n(CCOc4ccc(Cl)cc4-c4cc(C)nc5c(C(=O)O)csc45)c(=O)c3C2)C1 (single isomer, unassigned) [Compound 44]",–,< 0.1 µM,–,< 5 µM,< 1 µM
"Cc1nc2c(c(=O)n1CC#Cc1ccc(Cl)cc1-c1ccnc3c(C(=O)O)csc13)C[C@@H](N1CC[C@H](F)C1)CC2 (single isomer, unassigned) [Compound 293]",–,< 0.1 µM,–,< 5 µM,< 1 µM
"Cc1nc2c(c(=O)n1CC#Cc1ccc(Cl)cc1-c1ccnc3c(C(=O)NS(C)(=O)=O)csc13)CC(N(C)C)CC2 (single isomer, unassigned) [Compound 266]",–,0.5 to 5 µM,–,> 20 µM,> 5 µM
Cc1cc(-c2cc(Cl)ccc2OCCn2c(C)nc3c(c2=O)CC(N(C2CC2)C2CC(F)(F)C2)CC3)c2scc(C(=O)O)c2n1 (stereo not drawn) [Compound 76],–,< 0.1 µM,–,< 5 µM,< 1 µM
Cc1cc(-c2cc(Cl)ccc2OCCn2c(C)nc3c(c2=O)CC(N(C)C24CC(C)(C2)C4(F)F)CC3)c2scc(C(=O)NS(C)(=O)=O)c2n1 (stereo not drawn) [Compound 288],–,< 0.1 µM,–,5 to 20 µM,1 to 5 µM
"Cc1cc(-c2cc(Cl)ccc2OCCn2c(C)nc3c(c2=O)CC(N(C)C2CC(F)(F)C2)CC3)c2scc(C(=O)NS(C)(=O)=O)c2n1 (single isomer, unassigned) [Compound 94]",< 5 µM,< 0.1 µM,< 1 µM,–,–

Compound,IC50 [1],IC50 [2],IC50 [3],"IC50 ([1]; Homo sapiens, COLO 205, 72 h)","IC50 ([3]; Homo sapiens, Flp-In-293, 24 h)"
"Cc1cc(-c2cc(Cl)ccc2OCCn2c(C)nc3c(c2=O)CC(N(C)CC2CC(F)(F)C2)CC3)c2scc(C(=O)O)c2n1 (single isomer, unassigned) [Compound 259]",< 5 µM,< 0.1 µM,–,–,< 1 µM
Cc1cc(-c2cc(Cl)ccc2OCCn2c(C)nc3c(c2=O)CC(N2CC(N4CCOCC4)C2)CC3)c2scc(C(=O)O)c2n1 (stereo not drawn) [Compound 17],–,< 0.1 µM,–,5 to 20 µM,1 to 5 µM
"Cc1cc(-c2cc(Cl)ccc2OCCn2c(C)nc3c(c2=O)CC(N(C)Cc2ccncc2)CC3)c2scc(C(=O)O)c2n1 (single isomer, unassigned) [Compound 354]",< 5 µM,< 0.1 µM,< 1 µM,–,–
"Cc1nc2c(c(=O)n1CC#Cc1ccc(Cl)cc1-c1ccnc3c(C(=O)NS(C)(=O)=O)csc13)CC(N(C)Cc1ccncc1)CC2 (single isomer, unassigned) [Compound 295]",–,< 0.1 µM,–,< 5 µM,< 1 µM
CC(=O)N(C)C1CCc2nc(C)n(CCOc3ccc(Cl)cc3-c3cccc(C(=O)O)c3)c(=O)c2C1 (stereo not drawn) [Compound 15],–,0.5 to 5 µM,–,> 20 µM,> 5 µM
COC1CN(C2CCc3nc(C)n(CCOc4ccc(Cl)cc4-c4cc(C)nc5c(C(=O)O)csc45)c(=O)c3C2)C1 (stereo not drawn) [Compound 28],–,< 0.1 µM,–,< 5 µM,< 1 µM
Cc1cc(-c2cc(Cl)ccc2OCCn2c(C)nc3c(c2=O)CC(N(C)C(=O)C2CCN(CC(F)(F)F)CC2)CC3)c2scc(C(=O)NS(C)(=O)=O)c2n1 (stereo not drawn) [Compound 82],–,< 0.1 µM,–,> 20 µM,1 to 5 µM
Cc1cc(-c2cc(Cl)ccc2OCCn2c(C)nc3c(c2=O)CC(N(C)S(C)(=O)=O)CC3)c2scc(C(=O)O)c2n1 (stereo not drawn) [Compound 37],–,< 0.1 µM,–,5 to 20 µM,> 5 µM
Cc1cc(-c2cc(Cl)ccc2OCCn2c(C)nc3c(c2=O)CC(N(C2CCC2)C2CC2)CC3)c2scc(C(=O)NS(C)(=O)=O)c2n1 (stereo not drawn) [Compound 317],–,< 0.1 µM,–,< 5 µM,< 1 µM
Cc1cc(-c2cc(Cl)ccc2OCCn2c(C)nc3c(c2=O)CC(N(C)CC2COC2)CC3)c2scc(C(=O)O)c2n1 (stereo not drawn) [Compound 29],–,< 0.1 µM,–,< 5 µM,< 1 µM
"Cc1cc(-c2cc(Cl)ccc2OCCn2c(C)nc3c(c2=O)CC(N(C)C2CC2)CC3)c2sccc2n1 (single isomer, unassigned) [Compound 306]",–,0.5 to 5 µM,> 5 µM,5 to 20 µM,–
"Cc1cc(-c2cc(Cl)ccc2OCCn2c(C)nc3c(c2=O)CC(N(C)C2CCCC2(F)F)CC3)c2scc(C(=O)O)c2n1 (single isomer, unassigned) [Compound 301]",5 to 20 µM,< 0.1 µM,< 1 µM,–,–
"Cc1sc2c(-c3cc(Cl)ccc3OCCn3c(C)nc4c(c3=O)CC(N(C)CC3CC(F)(F)C3)CC4)cn(C)c(=O)c2c1C(=O)O (single isomer, unassigned) [Compound 252]",5 to 20 µM,< 0.1 µM,1 to 5 µM,–,–
"Cc1nc2c(c(=O)n1CC#Cc1ccc(Cl)cc1-c1ccnc3c(C(=O)NS(C)(=O)=O)csc13)CC(N1CC(F)(F)C1)CC2 (single isomer, unassigned) [Compound 332]",5 to 20 µM,0.1 to 0.5 µM,> 5 µM,–,–
Cc1cc(-c2cc(Cl)ccc2OCCn2c(C)nc3c(c2=O)CC(N(C)C(=O)C2CN(CC(F)(F)F)C2)CC3)c2scc(C(=O)O)c2n1 (stereo not drawn) [Compound 72],–,< 0.1 µM,–,> 20 µM,> 5 µM
"Cc1cc(-c2cc(Cl)ccc2OCCn2c(C)nc3c(c2=O)CC(N(C)C2CC2)CC3)c2scc(C(=O)NS(C)(=O)=O)c2n1 (single isomer, unassigned) [Compound 303]",< 5 µM,< 0.1 µM,< 1 µM,–,–
